B1: EE2-3: anti-ethynyl estradiol monoclonal antibody from mouse hybridoma EE2-3 line (antibody)
VH: VTLKXSGPGILQPSQTLSLTCSFSGFSLSTSDLGVSWIRQTSGKGLEWLAHIYWNDDKYYNPSLKSRLTISKDTSGNLVFLRITSVDTDDSATYYCARSPLYGSLTYWGQGTLVTVSA
light: DIVMSQSPSSLAVSVGEKVTLNCKSSQSLLNSRTRKNYLAWYQQKPGQSPKLLISWASTRESGVPDRFTGSGSGTDFTLTISSVQAEDLAVYYCNQFYYLLTFGAGTKLELKRADAAPTVSIFPPSSEQLTSGGASVVCFLNNFYPKDINVKWKIDGSERQNGVLNSWTDQDSKDSTYSMSSTLTLTKDEYERHNSYTCEATHKTSTSPIVKSFNRNE
modifications: Mouse; (5)..(5) Xaa = unknown for each location where they appear
notes: anti-ethynyl estradiol monoclonal antibody from mouse hybridoma EE2-3 line
B2: EE2-8-18: anti-ethynyl estradiol monoclonal antibody from mouse hybridoma EE2-8-18 line (antibody, V domains shown)
VH: VQVKESGPGLVAPSQSLSISCTVSGFPLTSYGVQWVRQPPGKGLEWLGVIWPGGSTNYNSALMSRLSISKDNSKSQVFLKMNSLQTDDTAMYYCAGWFQTGPRLFAYWGQGTLVTVSA
VL: DIQMTQSPASLSASVGETVTITCRASENIHSYLAWYQQKQGKSPQVLVYNAKTLGEGVSSRFSGSGSGTQFSLKINSLQPEDFGTYYCQNHYGSPWTFGGGTKLESK
modifications: Mouse
notes: anti-ethynyl estradiol monoclonal antibody from mouse hybridoma EE2-8-18 line

The test system of one series is purified anti-resin component antibody. Put plainly: Cross reactivity of purified anti-resin component antibody. The conditions noted are these: assuming BPA=100%. Type of series: binding, rabbit. The procedure: Also, even in the BPA-2-KLH-immunized rabbits, sixth immunization (immunization number 6) led to an equilibrium of antibody titer, and 178 mg of purified anti-resin component antibody was obtained from one rabbit. When assuming BPA=100% for this purified antibody, cross reactivity was as shown in Table 12; as specificity for BPA was high, it was proven that BPA only can be specifically concentrated or cleaned up.
`O=S(=O)(c1ccc(O)cc1)c1ccc(O)cc1` [Bisphenol S (BPS), Bisphenol S] registered a Cross reactivity below 0.4%.
The same measure, in the same setting: the result for `O=S(=O)(c1ccc(OCCO)cc1)c1ccc(OCCO)cc1` [Bis[4-(2-hydroxyethoxy)phenyl]sulfone] reads below 0.4%.
`CC(O)(Cc1ccc(O)cc1)c1ccc(O)cc1` (stereo not drawn) [1,2-Bis(4-hydroxyphenyl)-2-propanol] returned a Cross reactivity below 0.4%.
On the same count and under the same terms, then `CC(C)(c1ccc(OCC2CO2)cc1)c1ccc(OCC2CO2)cc1` (stereo not drawn) [BPA diglycidyl ether], with below 0.4%; and `Oc1ccc(Oc2ccc(O)cc2)cc1` [4,4′-Dihydroxydiphenyl ether], with below 0.4%; and `CCC(C)(c1ccc(O)cc1)c1ccc(O)cc1` [Bisphenol B (BPB), Bisphenol B], with 22.5%.
Regarding `CC(=O)Oc1ccc(C(C)(C)c2ccc(OC(C)=O)cc2)cc1` [BPA diacetate], the Cross reactivity is on record as 11.1%.
On the same count and under the same terms, the result for `Oc1ccc(Cc2ccc(O)cc2)cc1` [Bis(p-hydroxyphenyl)methane] reads 1.0%; that for `CC(C)(c1ccc(O)cc1)c1ccc(O)cc1` [Bisphenol A (BPA), Bisphenol A], 100%; that for `CC(CO)(c1ccc(O)cc1)c1ccc(O)cc1` [2,2′-Bis(4-hydroxyphenyl)-1-propanol], 9.3%.
In the case of `CC(c1ccc(O)cc1)c1ccc(O)cc1` [Bisphenol E (BPE), Bisphenol E], the Cross reactivity worked out at 6.6%.
Regarding `CC(CCC(=O)O)(c1ccc(O)cc1)c1ccc(O)cc1` [4,4′-Bis(p-hydroxyphenyl)pentanoic acid], the Cross reactivity is on record as below 0.4%.
The same measure, in the same setting: the result for `O=C(c1ccc(O)cc1)c1ccc(O)cc1` [p,p′-Dihydroxybenzophenone] reads below 0.4%; that for `C=C(C)C(=O)Oc1ccc(C(C)(C)c2ccc(OC(=O)C(=C)C)cc2)cc1` [BPA dimethacrylate], 2.7%.

The next series has as its system purified anti-estrogen polyclonal antibody. Description: Cross reactivity of purified anti-estrogen polyclonal antibody. Type of series: binding, rabbit. The conditions noted are these: assuming E2=100%. How it is done:
In the E3-16G-KLH-immunized rabbits, third immunization (immunization number 3) led to an equilibrium of antibody titer, and 168 mg of purified anti-estrogen polyclonal antibody was obtained from one rabbit.
For `C[C@]12CC[C@@H]3c4ccc(O)cc4CC[C@H]3[C@@H]1CC[C@@H]2O` [17β-Estradiol (E2), 17β-Estradiol], the Cross reactivity is 100%.
Same read-out and setting: the result for `C[C@]12CC[C@@H]3c4ccc(O)cc4CC[C@H]3[C@@H]1C[C@@H](O)[C@@H]2O` [Estriol (E3), Estriol] reads 69%; that for “Nonylphenol ethoxylate [Nonylphenol ethoxylate (NP10EO)]”, below 0.02%; that for `CCCCC(CC)COC(=O)c1ccccc1C(=O)OCC(CC)CCCC` (stereo not drawn) [Diethylhexyl phthalate (DEHP), Diethylhexyl phthalate], below 0.02%.
The molecule t-Nonylphenol [t-Nonylphenol (NP)] displayed a Cross reactivity below 0.02%.
Same read-out and setting: then `CC(C)(c1ccc(O)cc1)c1ccc(O)cc1` [Bisphenol A (BPA), Bisphenol A], with below 0.02%; and `Oc1ccc(Cl)cc1Cl` [2,4-Dichlorophenol (2,4DCP), 2,4-Dichlorophenol], with below 0.02%; and `C#C[C@]1(O)CC[C@H]2[C@@H]3CCc4cc(O)ccc4[C@H]3CC[C@@]21C` [Ethynylestradiol (EE2), Ethynylestradiol], with 7%.

System in a further series: not listed separately
Put plainly: Resistance of monoclonal antibody to a detergent. Also on record: species or system mouse. The conditions noted are these: compared with antibody from EE2-277 line.
In the case of B1, the “resistance to a detergent of the antibody” value is reported as “the same as that of one from EE2-277 line”.
As for B2, the “resistance to a detergent of the antibody” value was “slightly lower than that of one from EE2-277 line”.

For the next series, the system named is purified anti-resin plasticizer antibody. Put plainly: Cross reactivity of purified anti-resin plasticizer antibody. Type of series: binding, rabbit. The conditions noted are these: assuming DBP=100%.
`O=C(OC1CCCCC1)c1ccccc1C(=O)OC1CCCCC1` [Dicyclohexyl phthalate] came in with a Cross reactivity below 1%.
On the same count and under the same terms, the result for `CCCCC(CC)COC(=O)c1ccccc1C(=O)OCC(CC)CCCC` (stereo not drawn) [Diethylhexyl phthalate (DEHP), Diethylhexyl phthalate] reads below 1%; that for `CCCCOC(=O)c1ccccc1C(=O)OCCCC` [Dibutyl phthalate], 100%.
For `CCCCCCOC(=O)c1ccccc1C(=O)OCCCCCC` [Dihexyl phthalate], the Cross reactivity was 4%.
As for `CCCCCOC(=O)c1ccccc1C(=O)OCCCCC` [Dipentyl phthalate], the Cross reactivity was determined as 10%.
`CCCOC(=O)c1ccccc1C(=O)OCCC` [Dipropyl phthalate] yielded a Cross reactivity of 27%.
The molecule `CC(C)CCCCCCOC(=O)c1ccccc1C(=O)OCCCCCCC(C)C` [Diisononyl phthalate] gave a Cross reactivity below 1%.
The same measure, in the same setting: then `CCCCC(CC)COC(=O)CCCCC(=O)OCC(CC)CCCC` (stereo not drawn) [Diethylhexyl adipate], with below 1%; and `CCOC(=O)c1ccccc1C(=O)OCC` [Diethyl phthalate], with 7%.

The values above are taken from patent US20060216761A1, “Isolation material for hormone disrupting substance, method of concentrating and method of clean-up” (priority 2002, published 2006).
